In ChEMBL document CHEMBL1201862, “PubChem BioAssay data set” (2004):
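These data come from cells grown in 96-well plates and exposed to compound for 48 hours at five concentrations. Abbreviation: GI50, concentration required for 50% inhibition of growth.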 The source made the active and inactive calls. Cut-off read from the data, not from the text of the source: active = GI50 up to about 1.1 µM and inactive = higher.

Legend:
Assay in all cases: inhibition of tumour cell growth, NCI panel, 48 h
786-0 = tested on: 786-0
A498 = tested on: A498
A549 = tested on: A549
ACHN = tested on: ACHN
BT-549 = tested on: BT-549
CAKI-1 = tested on: CAKI-1
CCRF-CEM = tested on: CCRF-CEM
COLO 205 = tested on: COLO 205
DU-145 = tested on: DU-145
EKVX = tested on: EKVX
HCC 2998 = tested on: HCC 2998
HCT-116 = tested on: HCT-116
HCT-15 = tested on: HCT-15
HL-60 = tested on: HL-60
HOP-62 = tested on: HOP-62
HOP-92 = tested on: HOP-92
HT-29 = tested on: HT-29
Hs-578T = tested on: Hs-578T
IGROV-1 = tested on: IGROV-1
K562 = tested on: K562
KM12 = tested on: KM12
LOX IMVI = tested on: LOX IMVI
M14 = tested on: M14
MCF7 = tested on: MCF7
MDA-MB-231 = tested on: MDA-MB-231
MDA-MB-435 = tested on: MDA-MB-435
MDA-N = tested on: MDA-N
MOLT-4 = tested on: MOLT-4
Malme-3M = tested on: Malme-3M
NCI-H226 = tested on: NCI-H226
NCI-H23 = tested on: NCI-H23
NCI-H460 = tested on: NCI-H460
NCI-H522 = tested on: NCI-H522
NCI/ADR-RES = tested on: NCI/ADR-RES
OVCAR-3 = tested on: OVCAR-3
OVCAR-4 = tested on: OVCAR-4
OVCAR-5 = tested on: OVCAR-5
OVCAR-8 = tested on: OVCAR-8
PC-3 = tested on: PC-3
RPMI-8226 = tested on: RPMI-8226
RXF 393 = tested on: RXF 393
SF-268 = tested on: SF-268
SF-295 = tested on: SF-295
SF-539 = tested on: SF-539
SK-MEL-28 = tested on: SK-MEL-28
SK-MEL-2 = tested on: SK-MEL-2
SK-MEL-5 = tested on: SK-MEL-5
SK-OV-3 = tested on: SK-OV-3
SN12C = tested on: SN12C
SNB-19 = tested on: SNB-19
SW-620 = tested on: SW-620
TK-10 = tested on: TK-10
U-251 = tested on: U-251
UACC-257 = tested on: UACC-257
UACC-62 = tested on: UACC-62
UO-31 = tested on: UO-31
SNB-75 = tested on: SNB-75
SR = tested on: SR
T47D = tested on: T47D

SMILES: NC(=O)N/N=C\c1ccccc1OCc1cccc(COc2ccccc2/C=N\NC(N)=O)n1
- GI50 (786-0): 20.5 µM (inactive)
- GI50 (A498): 98.6 µM (inactive)
- GI50 (A549): > 100 µM (inactive)
- GI50 (ACHN): 26.2 µM (inactive)
- GI50 (BT-549): 26.9 µM (inactive)
- GI50 (CAKI-1): > 100 µM (inactive)
- GI50 (CCRF-CEM): > 100 µM (inactive)
- GI50 (COLO 205): > 100 µM (inactive)
- GI50 (DU-145): 18.8 µM (inactive)
- GI50 (EKVX): 18 µM (inactive)
- GI50 (HCC 2998): 21.3 µM (inactive)
- GI50 (HCT-116): 33.9 µM (inactive)
- GI50 (HCT-15): 64.1 µM
- GI50 (HL-60): > 100 µM (inactive)
- GI50 (HOP-62): 12.4 µM (inactive)
- GI50 (HOP-92): 27.2 µM (inactive)
- GI50 (HT-29): > 100 µM (inactive)
- GI50 (Hs-578T): 13.2 µM (inactive)
- GI50 (IGROV-1): 37.4 µM (inactive)
- GI50 (K562): > 100 µM (inactive)
- GI50 (KM12): > 100 µM (inactive)
- GI50 (LOX IMVI): 46.1 µM (inactive)
- GI50 (M14): 49.2 µM (inactive)
- GI50 (MCF7): > 100 µM (inactive)
- GI50 (MDA-MB-231): 14.6 µM (inactive)
- GI50 (MDA-MB-435): > 100 µM (inactive)
- GI50 (MDA-N): > 100 µM (inactive)
- GI50 (MOLT-4): > 100 µM (inactive)
- GI50 (Malme-3M): 72.9 µM (inactive)
- GI50 (NCI-H226): 73.6 µM (inactive)
- GI50 (NCI-H23): 30.1 µM (inactive)
- GI50 (NCI-H460): > 100 µM (inactive)
- GI50 (NCI-H522): 64.4 µM (inactive)
- GI50 (NCI/ADR-RES): 57.4 µM (inactive)
- GI50 (OVCAR-3): > 100 µM (inactive)
- GI50 (OVCAR-4): > 100 µM (inactive)
- GI50 (OVCAR-5): 41.2 µM (inactive)
- GI50 (OVCAR-8): 63.1 µM (inactive)
- GI50 (PC-3): 86.9 µM (inactive)
- GI50 (RPMI-8226): > 100 µM (inactive)
- GI50 (RXF 393): 12.9 µM (inactive)
- GI50 (SF-268): 21 µM (inactive)
- GI50 (SF-295): 17.1 µM (inactive)
- GI50 (SF-539): 19.3 µM (inactive)
- GI50 (SK-MEL-28): > 100 µM (inactive)
- GI50 (SK-MEL-2): 28.8 µM (inactive)
- GI50 (SK-MEL-5): > 100 µM (inactive)
- GI50 (SK-OV-3): 19 µM (inactive)
- GI50 (SN12C): > 100 µM (inactive)
- GI50 (SNB-19): 30.8 µM (inactive)
- GI50 (SW-620): > 100 µM (inactive)
- GI50 (TK-10): 30.7 µM (inactive)
- GI50 (U-251): 5.56 µM (inactive)
- GI50 (UACC-257): > 100 µM (inactive)
- GI50 (UACC-62): 19.1 µM (inactive)
- GI50 (UO-31): 29.9 µM (inactive)

SMILES: CCOC(=O)/C(C[C@H]1OC(C)(C)O[C@@H]1[C@H]1COC(C)(C)O1)=N/O
- GI50 (786-0): > 100 µM (inactive)
- GI50 (A498): > 100 µM (inactive)
- GI50 (A549): > 100 µM (inactive)
- GI50 (ACHN): > 100 µM (inactive)
- GI50 (BT-549): > 100 µM (inactive)
- GI50 (CAKI-1): > 100 µM (inactive)
- GI50 (CCRF-CEM): > 100 µM (inactive)
- GI50 (COLO 205): > 100 µM (inactive)
- GI50 (DU-145): > 100 µM (inactive)
- GI50 (EKVX): > 100 µM (inactive)
- GI50 (HCC 2998): > 100 µM (inactive)
- GI50 (HCT-116): > 100 µM (inactive)
- GI50 (HCT-15): > 100 µM
- GI50 (HL-60): > 100 µM (inactive)
- GI50 (HOP-62): > 100 µM (inactive)
- GI50 (HOP-92): > 100 µM (inactive)
- GI50 (HT-29): > 100 µM (inactive)
- GI50 (Hs-578T): > 100 µM (inactive)
- GI50 (IGROV-1): > 100 µM (inactive)
- GI50 (K562): > 100 µM (inactive)
- GI50 (KM12): > 100 µM (inactive)
- GI50 (LOX IMVI): > 100 µM (inactive)
- GI50 (M14): > 100 µM (inactive)
- GI50 (MCF7): > 100 µM (inactive)
- GI50 (MDA-MB-231): > 100 µM (inactive)
- GI50 (MDA-MB-435): > 100 µM (inactive)
- GI50 (MDA-N): > 100 µM (inactive)
- GI50 (MOLT-4): > 100 µM (inactive)
- GI50 (Malme-3M): > 100 µM (inactive)
- GI50 (NCI-H226): > 100 µM (inactive)
- GI50 (NCI-H23): > 100 µM (inactive)
- GI50 (NCI-H460): > 100 µM (inactive)
- GI50 (NCI-H522): > 100 µM (inactive)
- GI50 (NCI/ADR-RES): > 100 µM (inactive)
- GI50 (OVCAR-3): > 100 µM (inactive)
- GI50 (OVCAR-4): > 100 µM (inactive)
- GI50 (OVCAR-5): > 100 µM (inactive)
- GI50 (OVCAR-8): > 100 µM (inactive)
- GI50 (PC-3): > 100 µM (inactive)
- GI50 (RPMI-8226): > 100 µM (inactive)
- GI50 (RXF 393): > 100 µM (inactive)
- GI50 (SF-268): > 100 µM (inactive)
- GI50 (SF-295): > 100 µM (inactive)
- GI50 (SF-539): > 100 µM (inactive)
- GI50 (SK-MEL-28): > 100 µM (inactive)
- GI50 (SK-MEL-2): > 100 µM (inactive)
- GI50 (SK-MEL-5): > 100 µM (inactive)
- GI50 (SK-OV-3): > 100 µM (inactive)
- GI50 (SN12C): > 100 µM (inactive)
- GI50 (SNB-19): > 100 µM (inactive)
- GI50 (SW-620): > 100 µM (inactive)
- GI50 (TK-10): > 100 µM (inactive)
- GI50 (U-251): > 100 µM (inactive)
- GI50 (UACC-257): > 100 µM (inactive)
- GI50 (UACC-62): > 100 µM (inactive)
- GI50 (UO-31): > 100 µM (inactive)

SMILES: O=C1CC(Cc2n[nH]c3c2CCCC3)CC(=O)N1
- GI50 (786-0): > 100 µM (inactive)
- GI50 (A498): > 100 µM (inactive)
- GI50 (A549): > 100 µM (inactive)
- GI50 (BT-549): > 100 µM (inactive)
- GI50 (CAKI-1): > 100 µM (inactive)
- GI50 (CCRF-CEM): 37.1 µM (inactive)
- GI50 (COLO 205): > 100 µM (inactive)
- GI50 (DU-145): > 100 µM (inactive)
- GI50 (EKVX): > 100 µM (inactive)
- GI50 (HCC 2998): > 100 µM (inactive)
- GI50 (HCT-116): > 100 µM (inactive)
- GI50 (HCT-15): > 100 µM
- GI50 (HL-60): > 100 µM (inactive)
- GI50 (HOP-62): > 100 µM (inactive)
- GI50 (HOP-92): > 100 µM (inactive)
- GI50 (HT-29): > 100 µM (inactive)
- GI50 (IGROV-1): > 100 µM (inactive)
- GI50 (K562): > 100 µM (inactive)
- GI50 (KM12): > 100 µM (inactive)
- GI50 (LOX IMVI): > 100 µM (inactive)
- GI50 (M14): > 100 µM (inactive)
- GI50 (MCF7): > 100 µM (inactive)
- GI50 (MDA-MB-231): > 100 µM (inactive)
- GI50 (MDA-MB-435): > 100 µM (inactive)
- GI50 (MDA-N): > 100 µM (inactive)
- GI50 (MOLT-4): > 100 µM (inactive)
- GI50 (Malme-3M): > 100 µM (inactive)
- GI50 (NCI-H226): > 100 µM (inactive)
- GI50 (NCI-H23): > 100 µM (inactive)
- GI50 (NCI/ADR-RES): > 100 µM (inactive)
- GI50 (OVCAR-3): > 100 µM (inactive)
- GI50 (OVCAR-4): > 100 µM (inactive)
- GI50 (OVCAR-5): > 100 µM (inactive)
- GI50 (OVCAR-8): > 100 µM (inactive)
- GI50 (PC-3): > 100 µM (inactive)
- GI50 (RPMI-8226): > 100 µM (inactive)
- GI50 (RXF 393): > 100 µM (inactive)
- GI50 (SF-268): > 100 µM (inactive)
- GI50 (SF-295): > 100 µM (inactive)
- GI50 (SF-539): > 100 µM (inactive)
- GI50 (SK-MEL-28): > 100 µM (inactive)
- GI50 (SK-MEL-2): > 100 µM (inactive)
- GI50 (SK-MEL-5): > 100 µM (inactive)
- GI50 (SK-OV-3): > 100 µM (inactive)
- GI50 (SN12C): > 100 µM (inactive)
- GI50 (SNB-75): > 100 µM (inactive)
- GI50 (SR): > 100 µM (inactive)
- GI50 (SW-620): > 100 µM (inactive)
- GI50 (T47D): > 100 µM (inactive)
- GI50 (TK-10): > 100 µM (inactive)
- GI50 (U-251): > 100 µM (inactive)
- GI50 (UACC-257): > 100 µM (inactive)
- GI50 (UACC-62): > 100 µM (inactive)
